“Also recorded” adds a separate entry of the source. Read-outs that look alike come from different tables or passages of the source.
Key:
p38α MAPK = p38α MAPK (Homo sapiens (Human), UniProt Q16539); experiment: p38 alpha IC50; type: biochemical
Procedure: (§1) Studies were undertaken to identify the possible biological target(s) of compound 69. The activation in neurons of PK such as PKCγ, ERK or p38 MAPK can contribute to pain hypersensitivity. Therefore, it was decided to screen compound 69 toward a panel of 50 PKs that provide a representative sampling of the human kinome (FIG. 3, Table 3) (Biochem. J. 2007, 408, 297-315). In this panel, p38α MAPK was identified as the privileged target, with 19% of kinase residual activity at 10 μM compound concentration.
(§2) The selectivity of compound 69 was evaluated at 1 μM toward another panel containing all four p38 MAPK isoforms, ERK1, ERK2 as well as other protein kinases close to p38α MAPK in the kinome phylogenetic tree (FIG. 4, Table 4). […] Its IC50 toward p38α MAPK was determined, showing a value in the micromolar range (IC50=3.0±0.1 μM).

Aurora B = Aurora B (Homo sapiens (Human), UniProt Q96GD4); experiment: ICKP protein kinase panel screening; type: biochemical; conditions: duplicate assays, read-out: mean % residual activity
Procedure: (§3) FIG. 3 illustrates the human kinome. Compound 69 was evaluated at the International Center For Kinase Profiling (ICKP, Dundee, Scotland) toward a panel of 50 protein kinases that provide a representative sampling of the human kinome. The results were expressed as the mean percentage of residual activity at 10 μM concentration (duplicate assays). Small disks: ≥65%, larger disk: 19%. The black square indicates the kinome region containing protein kinases evaluated in a second screening (FIG. 4, Table 4). The tree was generated using the Kinome Render software, and the illustration reproduced courtesy of Cell Signaling Technology, Inc. (www.cellsignal.com) Chartier et al PeerJ 2013, 1:e126.
(§4) Results are expressed as the mean percentage of residual activity at 10 μM (Table 3) or 1 μM (Table 4). They are illustrated on FIGS. 3 and 4.
as §1

BTK = BTK (Homo sapiens (Human), UniProt Q06187); experiment: ICKP protein kinase panel screening; type: biochemical; conditions: duplicate assays, read-out: mean % residual activity
Procedure: as §3, §4, §1

CAMK1 = CAMK1 (Homo sapiens (Human), UniProt Q14012); experiment: ICKP protein kinase panel screening; type: biochemical; conditions: duplicate assays, read-out: mean % residual activity
Procedure: as §3, §4, §1

CK1δ = CK1δ (Homo sapiens (Human), UniProt P48730); experiment: ICKP protein kinase panel screening; type: biochemical; conditions: duplicate assays, read-out: mean % residual activity
Procedure: as §3, §4, §1

DYRK1A = DYRK1A (Homo sapiens (Human), UniProt Q13627); experiment: ICKP protein kinase panel screening; type: biochemical; conditions: duplicate assays, read-out: mean % residual activity
Procedure: as §3, §4, §1

EF2K = EF2K (Homo sapiens (Human), UniProt O00418); experiment: ICKP protein kinase panel screening; type: biochemical; conditions: duplicate assays, read-out: mean % residual activity
Procedure: as §3, §4, §1

GSK3b = GSK3b (Homo sapiens (Human), UniProt P49841); experiment: ICKP protein kinase panel screening; type: biochemical; conditions: duplicate assays, read-out: mean % residual activity
Procedure: as §3, §4, §1

HIPK2 = HIPK2 (Homo sapiens (Human), UniProt Q9H2X6); experiment: ICKP protein kinase panel screening; type: biochemical; conditions: duplicate assays, read-out: mean % residual activity
Procedure: as §3, §4, §1

LKB1 = LKB1 (Homo sapiens (Human), UniProt Q15831); experiment: ICKP protein kinase panel screening; type: biochemical; conditions: duplicate assays, read-out: mean % residual activity
Procedure: as §3, §4, §1

MST2 = MST2 (Homo sapiens (Human), UniProt Q13188); experiment: ICKP protein kinase panel screening; type: biochemical; conditions: duplicate assays, read-out: mean % residual activity
Procedure: as §3, §4, §1

PDK1 = PDK1 (Homo sapiens (Human), UniProt O15530); experiment: ICKP protein kinase panel screening; type: biochemical; conditions: duplicate assays, read-out: mean % residual activity
Procedure: as §3, §4, §1

PIM1 = PIM1 (Homo sapiens (Human), UniProt P11309); experiment: ICKP protein kinase panel screening; type: biochemical; conditions: duplicate assays, read-out: mean % residual activity
Procedure: as §3, §4, §1

PKBa = PKBa (Homo sapiens (Human), UniProt P31749); experiment: ICKP protein kinase panel screening; type: biochemical; conditions: duplicate assays, read-out: mean % residual activity
Procedure: as §3, §4, §1

SGK1 = SGK1 (Homo sapiens (Human), UniProt O00141); experiment: ICKP protein kinase panel screening; type: biochemical; conditions: duplicate assays, read-out: mean % residual activity
Procedure: as §3, §4, §1

SYK = SYK (Homo sapiens (Human), UniProt P43405); experiment: ICKP protein kinase panel screening; type: biochemical; conditions: duplicate assays, read-out: mean % residual activity
Procedure: as §3, §4, §1

TAK1 = TAK1 (Homo sapiens (Human), UniProt O43318); experiment: ICKP protein kinase panel screening; type: biochemical; conditions: duplicate assays, read-out: mean % residual activity
Procedure: as §3, §4, §1

TTK = TTK (Homo sapiens (Human), UniProt P33981); experiment: ICKP protein kinase panel screening; type: biochemical; conditions: duplicate assays, read-out: mean % residual activity
Procedure: as §3, §4, §1

TrkA = TrkA (Homo sapiens (Human), UniProt P04629); experiment: ICKP protein kinase panel screening; type: biochemical; conditions: duplicate assays, read-out: mean % residual activity
Procedure: as §3, §4, §1

VEG-FR = VEG-FR (Homo sapiens (Human), UniProt P17948); experiment: ICKP protein kinase panel screening; type: biochemical; conditions: duplicate assays, read-out: mean % residual activity
Procedure: as §3, §4, §1

AMPK (hum) = experiment: ICKP protein kinase panel screening; type: biochemical, human; conditions: 10 μM, duplicate assays
Procedure: as §3, §4, §1

CK2 = experiment: ICKP protein kinase panel screening; type: biochemical, human; conditions: 10 μM, duplicate assays
Procedure: as §3, §4, §1

ROCK 2 = experiment: ICKP protein kinase panel screening; type: biochemical, human; conditions: 10 μM, duplicate assays
Procedure: as §3, §4, §1

[1] = test system: panel of 50 protein kinases; experiment: ICKP screening, whole panel of 50 protein kinases; type: biochemical, human; conditions: 10 μM
Procedure: as §3, §4, §1

[2] = test system: panel of 13 protein kinases; experiment: ICKP screening, whole panel of 13 protein kinases; type: biochemical, human; conditions: 1 μM
Procedure: FIG. 4 illustrates the studies carried out for compounds 67 and 69. Compounds 67 and 69 (FIG. 4B) were evaluated at the International Center For Kinase Profiling (ICKP, Dundee, Scotland) toward a panel of 13 protein kinases. The results (FIG. 4A) were expressed as the mean percentage of residual activity at 1 μM concentration (duplicate assays). Small disks: ≥90%, larger disk: 59%, for both compounds. The tree was generated using the Kinome Render software, and the illustration reproduced courtesy of Cell Signaling Technology, Inc. (www.cellsignal.com) Chartier et al PeerJ 2013, 1:e126.
as §4, §2

Chain of p38α MAPK (Q16539 whole entry): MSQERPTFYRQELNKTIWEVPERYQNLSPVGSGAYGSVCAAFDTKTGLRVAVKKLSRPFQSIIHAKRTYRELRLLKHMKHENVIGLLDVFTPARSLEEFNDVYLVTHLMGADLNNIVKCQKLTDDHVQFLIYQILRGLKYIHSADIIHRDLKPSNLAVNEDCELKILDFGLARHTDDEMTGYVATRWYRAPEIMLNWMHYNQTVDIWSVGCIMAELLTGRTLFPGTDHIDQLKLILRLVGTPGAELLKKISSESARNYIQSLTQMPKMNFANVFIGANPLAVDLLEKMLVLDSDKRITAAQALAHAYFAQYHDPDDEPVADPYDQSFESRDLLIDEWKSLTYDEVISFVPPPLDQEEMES
Chain of SGK1 (O00141 whole entry): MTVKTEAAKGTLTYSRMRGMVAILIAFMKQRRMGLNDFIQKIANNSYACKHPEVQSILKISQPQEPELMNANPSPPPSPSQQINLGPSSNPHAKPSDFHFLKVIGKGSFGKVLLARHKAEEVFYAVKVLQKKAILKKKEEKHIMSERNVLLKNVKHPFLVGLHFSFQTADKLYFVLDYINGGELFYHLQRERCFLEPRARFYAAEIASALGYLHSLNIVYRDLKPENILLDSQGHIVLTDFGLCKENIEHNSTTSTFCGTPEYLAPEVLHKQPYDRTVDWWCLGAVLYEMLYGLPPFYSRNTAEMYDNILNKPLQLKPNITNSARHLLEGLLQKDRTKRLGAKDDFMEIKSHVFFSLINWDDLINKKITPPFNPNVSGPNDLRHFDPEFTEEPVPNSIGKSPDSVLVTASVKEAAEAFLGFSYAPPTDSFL
Chain of LKB1 (Q15831 whole entry): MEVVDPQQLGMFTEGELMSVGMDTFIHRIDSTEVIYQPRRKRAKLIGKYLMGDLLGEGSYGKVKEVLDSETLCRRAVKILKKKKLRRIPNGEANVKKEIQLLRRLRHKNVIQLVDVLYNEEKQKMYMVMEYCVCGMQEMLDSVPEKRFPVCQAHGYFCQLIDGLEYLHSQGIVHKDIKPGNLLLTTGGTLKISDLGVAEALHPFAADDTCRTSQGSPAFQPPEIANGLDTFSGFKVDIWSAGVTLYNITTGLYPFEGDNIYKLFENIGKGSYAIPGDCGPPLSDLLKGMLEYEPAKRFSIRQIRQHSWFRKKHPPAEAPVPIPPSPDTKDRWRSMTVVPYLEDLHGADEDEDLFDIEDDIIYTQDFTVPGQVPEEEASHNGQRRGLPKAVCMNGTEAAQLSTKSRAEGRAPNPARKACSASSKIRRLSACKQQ
Chain of LKB1 (Q7RTN6 whole entry partner): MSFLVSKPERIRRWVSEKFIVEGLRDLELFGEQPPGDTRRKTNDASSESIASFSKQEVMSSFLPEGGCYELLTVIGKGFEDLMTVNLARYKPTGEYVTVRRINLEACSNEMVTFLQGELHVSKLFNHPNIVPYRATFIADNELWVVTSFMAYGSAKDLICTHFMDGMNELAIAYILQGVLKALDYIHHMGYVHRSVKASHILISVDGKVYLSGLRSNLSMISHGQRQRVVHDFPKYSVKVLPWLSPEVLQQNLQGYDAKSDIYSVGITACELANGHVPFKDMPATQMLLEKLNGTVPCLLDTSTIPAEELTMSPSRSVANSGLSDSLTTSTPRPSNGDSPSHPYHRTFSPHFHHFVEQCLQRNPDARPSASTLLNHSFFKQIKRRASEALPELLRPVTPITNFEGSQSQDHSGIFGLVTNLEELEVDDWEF
Chain of LKB1 (Q9Y376 whole entry partner): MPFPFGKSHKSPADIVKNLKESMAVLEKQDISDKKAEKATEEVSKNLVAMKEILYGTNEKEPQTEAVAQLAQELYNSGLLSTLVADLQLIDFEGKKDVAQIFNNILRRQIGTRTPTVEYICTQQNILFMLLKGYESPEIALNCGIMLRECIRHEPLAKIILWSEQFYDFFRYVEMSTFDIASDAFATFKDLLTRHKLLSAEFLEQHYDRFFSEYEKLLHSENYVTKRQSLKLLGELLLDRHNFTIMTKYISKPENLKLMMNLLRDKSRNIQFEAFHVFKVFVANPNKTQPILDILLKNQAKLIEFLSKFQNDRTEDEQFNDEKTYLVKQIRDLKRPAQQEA
Chain of CAMK1 (Q14012 whole entry): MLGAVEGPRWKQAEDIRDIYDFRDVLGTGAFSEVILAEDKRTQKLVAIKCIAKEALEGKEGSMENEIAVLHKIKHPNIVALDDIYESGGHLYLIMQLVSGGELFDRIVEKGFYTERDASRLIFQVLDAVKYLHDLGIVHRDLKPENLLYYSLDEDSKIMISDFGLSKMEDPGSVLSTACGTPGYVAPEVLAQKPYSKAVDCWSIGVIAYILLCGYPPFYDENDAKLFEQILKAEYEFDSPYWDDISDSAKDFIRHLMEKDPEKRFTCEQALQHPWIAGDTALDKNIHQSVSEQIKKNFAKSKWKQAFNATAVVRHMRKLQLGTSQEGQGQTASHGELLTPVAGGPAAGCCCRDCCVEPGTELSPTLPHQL
Chain of HIPK2 (Q9H2X6 whole entry): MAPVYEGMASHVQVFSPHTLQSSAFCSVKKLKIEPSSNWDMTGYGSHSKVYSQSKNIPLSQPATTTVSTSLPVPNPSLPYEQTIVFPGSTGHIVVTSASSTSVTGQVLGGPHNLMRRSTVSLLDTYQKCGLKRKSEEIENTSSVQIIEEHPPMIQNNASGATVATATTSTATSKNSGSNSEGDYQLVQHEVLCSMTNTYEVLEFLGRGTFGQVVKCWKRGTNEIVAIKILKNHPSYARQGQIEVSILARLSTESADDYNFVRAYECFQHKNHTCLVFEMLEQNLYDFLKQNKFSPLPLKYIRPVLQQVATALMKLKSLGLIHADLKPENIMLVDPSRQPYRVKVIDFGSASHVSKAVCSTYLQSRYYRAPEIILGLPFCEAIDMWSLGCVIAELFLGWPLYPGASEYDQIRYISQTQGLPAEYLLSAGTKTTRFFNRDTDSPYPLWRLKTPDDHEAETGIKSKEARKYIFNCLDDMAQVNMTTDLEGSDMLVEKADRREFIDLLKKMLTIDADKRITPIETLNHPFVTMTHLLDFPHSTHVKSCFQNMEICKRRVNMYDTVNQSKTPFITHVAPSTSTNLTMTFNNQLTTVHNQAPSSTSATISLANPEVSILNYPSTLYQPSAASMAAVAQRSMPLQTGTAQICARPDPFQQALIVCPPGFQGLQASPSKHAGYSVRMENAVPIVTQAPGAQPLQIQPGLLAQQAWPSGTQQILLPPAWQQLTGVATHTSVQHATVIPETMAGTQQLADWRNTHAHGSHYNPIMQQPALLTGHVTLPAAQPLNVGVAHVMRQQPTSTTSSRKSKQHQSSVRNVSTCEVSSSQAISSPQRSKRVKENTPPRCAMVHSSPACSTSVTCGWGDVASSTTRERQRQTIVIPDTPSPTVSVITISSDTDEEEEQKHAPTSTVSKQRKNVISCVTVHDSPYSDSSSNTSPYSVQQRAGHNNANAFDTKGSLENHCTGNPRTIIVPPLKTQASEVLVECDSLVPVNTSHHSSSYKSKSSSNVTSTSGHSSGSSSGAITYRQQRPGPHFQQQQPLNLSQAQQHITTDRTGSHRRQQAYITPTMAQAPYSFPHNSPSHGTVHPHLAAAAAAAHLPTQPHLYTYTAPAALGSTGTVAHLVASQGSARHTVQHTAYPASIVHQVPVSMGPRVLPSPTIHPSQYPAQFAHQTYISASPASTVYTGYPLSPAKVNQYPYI
Chain of TrkA (P04629 33-796): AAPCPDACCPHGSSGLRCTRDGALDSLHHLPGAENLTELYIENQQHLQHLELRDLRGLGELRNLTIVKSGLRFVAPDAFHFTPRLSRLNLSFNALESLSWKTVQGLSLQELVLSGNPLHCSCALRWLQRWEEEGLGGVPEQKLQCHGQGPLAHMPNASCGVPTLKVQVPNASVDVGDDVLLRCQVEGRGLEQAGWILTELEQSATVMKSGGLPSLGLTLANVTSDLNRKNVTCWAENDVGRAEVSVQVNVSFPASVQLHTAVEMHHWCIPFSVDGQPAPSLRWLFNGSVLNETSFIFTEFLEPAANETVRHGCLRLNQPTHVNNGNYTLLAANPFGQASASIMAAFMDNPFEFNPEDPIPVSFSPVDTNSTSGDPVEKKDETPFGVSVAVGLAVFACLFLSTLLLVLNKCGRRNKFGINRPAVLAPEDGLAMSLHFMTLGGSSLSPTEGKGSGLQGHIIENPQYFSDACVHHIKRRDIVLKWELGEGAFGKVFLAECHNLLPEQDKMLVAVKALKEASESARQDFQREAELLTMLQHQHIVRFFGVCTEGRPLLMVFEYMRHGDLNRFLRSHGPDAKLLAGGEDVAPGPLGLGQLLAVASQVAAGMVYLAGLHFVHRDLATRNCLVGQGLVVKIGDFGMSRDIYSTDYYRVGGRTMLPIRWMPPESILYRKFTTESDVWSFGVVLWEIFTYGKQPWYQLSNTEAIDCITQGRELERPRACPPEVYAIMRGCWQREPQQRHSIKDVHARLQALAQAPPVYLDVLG
Chain of Aurora B (Q96GD4 whole entry): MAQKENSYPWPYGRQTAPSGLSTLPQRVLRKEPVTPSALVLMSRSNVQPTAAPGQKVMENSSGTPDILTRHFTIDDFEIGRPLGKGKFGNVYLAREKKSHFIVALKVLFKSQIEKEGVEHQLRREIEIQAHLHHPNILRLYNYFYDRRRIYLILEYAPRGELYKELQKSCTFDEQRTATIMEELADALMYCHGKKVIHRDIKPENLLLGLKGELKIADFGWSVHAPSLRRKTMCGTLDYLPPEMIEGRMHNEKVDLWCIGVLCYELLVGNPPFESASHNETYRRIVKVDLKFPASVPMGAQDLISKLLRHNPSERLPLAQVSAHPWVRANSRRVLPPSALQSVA
Chain of PIM1 (P11309 whole entry): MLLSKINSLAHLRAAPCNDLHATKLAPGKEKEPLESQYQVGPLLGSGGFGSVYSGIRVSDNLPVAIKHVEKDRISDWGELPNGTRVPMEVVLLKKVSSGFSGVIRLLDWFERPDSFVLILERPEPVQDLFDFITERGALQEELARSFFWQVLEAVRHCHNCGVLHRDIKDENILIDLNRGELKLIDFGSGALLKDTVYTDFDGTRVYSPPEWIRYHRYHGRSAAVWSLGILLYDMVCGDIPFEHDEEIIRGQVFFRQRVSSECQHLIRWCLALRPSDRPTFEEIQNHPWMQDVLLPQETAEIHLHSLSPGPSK

Structure (SMILES): O=c1[nH]cc(Nc2ccccc2)cc1-c1ccccc1Br [Compound 69, 3-(2-Bromophenyl)-5-(phenylamino)pyridin-2(1H)-one]
- IC50 (p38α MAPK; p38 alpha, read-out: Mean IC50): 1.46 µM
- IC50 (p38α MAPK; read-out: IC50 toward p38α MAPK): 1.5 ± 0.7 µM
- remaining activity at 10 µM (Aurora B): 77%
- remaining activity at 10 µM (BTK): 94%
- remaining activity at 10 µM (CAMK1): 96%
- remaining activity at 10 µM (CK1δ): 98%
- remaining activity at 10 µM (DYRK1A): 66%
- remaining activity at 10 µM (EF2K): 116%
- remaining activity at 10 µM (GSK3b): 105%
- remaining activity at 10 µM (HIPK2): 96%
- remaining activity at 10 µM (LKB1): 83%
- remaining activity at 10 µM (MST2): 91%
- remaining activity at 10 µM (PDK1): 103%
- remaining activity at 10 µM (PIM1): 95%
- remaining activity at 10 µM (PKBa): 107%
- remaining activity at 10 µM (SGK1): 89%
- remaining activity at 10 µM (SYK): 79%
- remaining activity at 10 µM (TAK1): 68%
- remaining activity at 10 µM (TTK): 81%
- remaining activity at 10 µM (TrkA): 88%
- remaining activity at 10 µM (VEG-FR): 94%
- mean % residual activity (AMPK (hum)): 95%
- mean % residual activity (CK2): 94%
- mean % residual activity (ROCK 2): 105%
- mean percentage of residual activity, other kinases of the panel (small disks) ([1]; all kinases except p38α MAPK): ≥ 65%
- selectivity for p38α MAPK over the other protein kinases ([1]; panel of 50 kinases): highly selective
- mean percentage of residual activity, other kinases of the panel (small disks) ([2]; all kinases except p38α MAPK): ≥ 90%
- selectivity for p38α MAPK over the other protein kinases incl. p38 isoforms ([2]; panel of 13 kinases): selective of p38α MAPK over the other protein kinases tested in this panel; also recorded: selective p38α MAPK inhibitor

Reference: US12351556B2, “Pyridin-2(1H)one derivatives, their preparation and their use for the treatment of pain” (INSTITUT NATIONAL DE LA SANTE ET DE LA RECHERCHE MEDICALE …, priority 2019, dated 2025)
